# Literature values as cited in paper PMC11232374, “Safety, tolerability, and pharmacokinetics of HRS9432(A) injection in healthy Chinese subjects: a phase-I randomized, double-blind, dose escalation, placebo-controlled study” (Antimicrobial Agents and Chemotherapy, 2024).
# Conditions: after a single intravenous dose
# Source text: Echinocandin-class antifungal drugs currently available on the market include caspofungin, micafungin, and anidulafungin. The chemical structures of these drugs contribute to their relatively short half-life, necessitating daily administration in clinical practice ([3]). Rezafungin is a long-acting echinocandin antifungal drug, based on the structure of anidulafungin to enhance metabolic stability. […] The results of its Pha ...
substance,measurement,value
Rezafungin,elimination half-life,150 h
